Experimental findings from ChEMBL document CHEMBL3217654, “Beta-adrenergic receptor signaling by the isomers of isoproterenol and like drugs in retinal endothelial cells and Muller cells” (Medchemcomm, 2011) are described below.

The nature of test [1]: Reduction of high glucose-induced apoptosis in REC (unknown origin) assessed as decrease in caspase 3 level at 10 uM after 15 to 45 mins by ELISA. The test is classed as functional.
Test [2] in a line: Reduction of high glucose-induced apoptosis in REC (unknown origin) assessed as decrease in caspase 3 level at 0.05 to 10 uM after 30 to 60 mins by ELISA. The test is classed as functional.
The species entered for test [3] is Rattus norvegicus. The test can be described thus: Reduction of high glucose-induced apoptosis in rat rMC-1 cells assessed as decrease in caspase 3 level at 0.05 to 10 uM after 1 to 24 hrs by ELISA. The test is classed as functional, cell-based.
The species named for test [4] is Rattus norvegicus. The test can be described thus: Antiinflammatory activity in rat rMC-1 cells assessed as decrease of high glucose-induced TNFalpha level at 0.05 to 10 uM after 1 to 24 hrs by ELISA. Format: functional, cell-based.
Test [5] can be described thus: Antiinflammatory activity in REC (unknown origin) assessed as effect on high glucose-induced TNFalpha level at 0.05 to 10 uM after 30 to 60 mins by ELISA. Format: functional.
Test [6] in a line: Antiinflammatory activity in REC (unknown origin) assessed as increase of high glucose-induced TNFalpha level at 0.05 to 10 uM after 30 to 60 mins by ELISA. Format: functional.
The nature of test [7]: Antiinflammatory activity in REC (unknown origin) assessed as decrease of high glucose-induced TNFalpha level at 0.05 to 10 uM after 30 to 60 mins by ELISA. The test is classed as functional.
Test [8] concerns the target Beta-1 adrenergic receptor (Homo sapiens) (UniProt P08588). The test can be described thus: Displacement of […]-iodocyanopindolol from beta1-adrenergic receptor in REC (unknown origin) at 0.01 to 10000 nM.
Test [9] concerns the target Beta-1 adrenergic receptor (Rattus norvegicus) (UniProt P18090). The test can be described thus: Displacement of […]-iodocyanopindolol from beta1-adrenergic receptor in rat rMC-1 cells at 0.01 to 10000 nM. The test is classed as cell-based.

The source made the active and inactive calls. The calls are words filed in the database; no cut-off is given here.

Beta-1 adrenergic receptor (Homo sapiens), sequence (P08588 whole entry, looked up): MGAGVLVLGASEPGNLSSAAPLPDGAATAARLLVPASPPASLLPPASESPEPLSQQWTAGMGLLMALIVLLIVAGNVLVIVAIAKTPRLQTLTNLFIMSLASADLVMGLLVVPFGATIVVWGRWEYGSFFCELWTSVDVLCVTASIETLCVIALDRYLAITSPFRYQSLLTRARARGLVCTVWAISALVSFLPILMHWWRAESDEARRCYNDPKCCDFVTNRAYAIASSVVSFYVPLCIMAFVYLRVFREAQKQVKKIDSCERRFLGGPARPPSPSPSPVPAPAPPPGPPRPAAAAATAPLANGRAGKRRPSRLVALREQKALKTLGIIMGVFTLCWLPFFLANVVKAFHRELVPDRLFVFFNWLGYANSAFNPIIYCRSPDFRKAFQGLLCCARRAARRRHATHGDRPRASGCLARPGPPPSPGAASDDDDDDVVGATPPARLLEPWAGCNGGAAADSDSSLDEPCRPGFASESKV
Beta-1 adrenergic receptor (Rattus norvegicus), sequence (P18090 whole entry, looked up): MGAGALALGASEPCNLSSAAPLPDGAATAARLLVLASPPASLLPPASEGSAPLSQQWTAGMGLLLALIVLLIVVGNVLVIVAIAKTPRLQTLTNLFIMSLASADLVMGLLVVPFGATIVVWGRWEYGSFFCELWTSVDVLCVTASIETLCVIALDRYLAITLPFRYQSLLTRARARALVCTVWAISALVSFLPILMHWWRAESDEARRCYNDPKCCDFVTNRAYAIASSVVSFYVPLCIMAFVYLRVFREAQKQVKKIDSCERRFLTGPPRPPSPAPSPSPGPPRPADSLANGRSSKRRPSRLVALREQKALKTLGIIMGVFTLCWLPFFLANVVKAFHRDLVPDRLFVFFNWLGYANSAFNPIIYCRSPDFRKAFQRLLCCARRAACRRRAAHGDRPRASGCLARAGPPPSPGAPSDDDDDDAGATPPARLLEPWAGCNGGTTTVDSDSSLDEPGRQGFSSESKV

`CC(C)NC[C@H](O)c1ccc(O)c(O)c1` (stereo in doubt; R-1): the outcome (in test [1]; in test [2]; in the test filed under Rattus norvegicus [4]) was Active. The outcome (in the test listed under Rattus norvegicus [3]; in test [5]) was inactive.

As for `CC(C)NC[C@H](O)c1ccc(O)c(O)c1` (stereo in doubt; S-1), the result (in test [2]; in the test filed under Rattus norvegicus [3]; in test [5]) was inactive. For the same molecule, the result in the test listed under Rattus norvegicus [4] was Active.

Regarding `O=C(NC[C@H](O)c1ccc(O)c(O)c1)N1CCOCC1`, the result (in [2]; in the test filed under Rattus norvegicus [3]; in test [6]; in the test filed under Rattus norvegicus [4]) was inactive.

For the molecule `O=C(NCCN(C[C@H](O)c1ccc(O)c(O)c1)C(=O)N1CCOCC1)N1CCOCC1`, the result in [1], in test [2] and in test [7] was Active. In addition, the result in the test filed under Rattus norvegicus [3] and in the test filed under Rattus norvegicus [4] was inactive. The inhibition result in test [8] and in [9] was “inactive” each time.

As for `Oc1ccc([C@@H](O)CNCCCN2CCOCC2)cc1O`, the result in test [1] and in [2] was Active. Further, the result (in the test filed under Rattus norvegicus [3]; in the test filed under Rattus norvegicus [4]; in test [5]) was inactive.
